Patent publication US20260130906A1, “THERAPY COMPRISING ANTI-CD19 ANTIBODY AND SUMO-ACTIVATING ENZYME INHIBITOR” (TAKEDA PHARMACEUTICAL COMPANY LIMITED, priority 2021, published 2026)

How the values were obtained:
[1] = test system: NK cells co-cultured with DAUDI cells; assay: Degranulation of NK cells (CD107a); format: cell-based, human; conditions: PBMCs pre-treated 1 μM TAK-981 24 h and/or 0.1 or 10 nM tafasitamab; E:T 10:1; 3 h; vs DMSO control or mono treatments; FIG. 2
Protocol: Whole Blood was collected from healthy volunteers. PBMCs were isolated via density-gradient centrifugation using Biocoll (Biochrome) or Pancoll (PAN Biotech) separating solution and SepMate tubes (STEMCELL Technologies).
Freshly isolated PBMCs were first pre-treated with 1 μM TAK-981 or DMSO-containing buffer for 24 hours. PBMCs with or without TAK-981 pre-treatment were co-cultured with DAUDI cells at an E:T ratio of 10:1 and incubated with 0.1 or 10 nM tafasitamab or no antibody at 37° C. and 5% CO2. After 1 hour, 2 μM Monensin was added to each well and CD107a expression was analyzed by flow cytometry after a total incubation time of 3 hours.

[2] = test system: DAUDI; assay: ADCP assay (macrophages); format: cell-based, human; conditions: macrophages pre-treated 1 μM TAK-981 and/or 1 nM tafasitamab, E:T 2:1, 3 h, FIG. 4
Protocol: Monocytes were positively selected from PBMCs using CD14 MicroBeads on a MACS LS column according to the manufacturer's protocol (Miltenyi Biotec). Isoltaed cells were re-suspended in RPMI medium supplemented with 10% FCS and 1× GlutaMax. Monocytes were maturated into macrophages in T-flasks for 6 to 7 days in the presence of 50 ng/ml M-CSF.
After maturation, macrophages were stained with 2 μM CFSE and detached using 5 mM EDTA and scraping. After washing with PBS, macrophages were re-suspended in medium containing either DMSO (negative control) or 1 μM TAK-981 and allowed to re-attach in 96 well culture plates for 16-24 hours. Target cells were stained using the CellTrace Violet Cell Proliferation Kit (Invitrogen) and co-cultured with pre-treated macrophages in the presence or absence of 1 nM tafasitamab for 3 hours at an E:T ratio of 2:1. The cells were detached using 0.05% Trypsin-EDTA and transferred into multi-well flow cytometry plates. Using flow cytometry the percentage of phagocytosis was evaluated, defined as the percentage of double positive cells out of all CellTrace Violet positive cells.

[3] = test system: WSU-DLCL2 human xenograft tumor model; assay: Study 3: WSU-DLCL2 human xenograft tumor model; format: in vivo, CB17 SCID mice; conditions: for GRI % / Tumor volume on Day 21 (±SEM): WSU-DLCL2; for GRI %: Day 21, vs vehicle; for Tumor volume on Day 21 (±SEM): in mm³ (unit assumed); for tumor growth inhibition as single agents (in words): WSU-DLCL2 human DLBCL mouse model
Protocol: The differences in the tumor growth trends over time between pairs of treatment groups were assessed by fitting each animal's data to a simple exponential growth model and comparing the mean growth rates of the two groups, as described in more detail below. The difference in the growth rates was summarized by the GRI, which is the reduction in growth rate experienced by the treatment group relative to that of the reference group, expressed as a fraction of the vehicle growth rate.
A GRI greater than 100% is interpreted as tumor regression when the vehicle group is the same as the reference group. A negative value of the GRI means that the tumors in the treatment group grew faster than the tumors in the reference group. Statistical significance was determined using an unpaired t-test.
Low tumor volumes can cause problems with the data analysis, so all measurements below 25 cubic mm (including 0 values) were excluded from the analysis. After this exclusion step, the tumor volume was assumed to follow an exponential growth model. […]
WSU-DLCL2 is a human DLBCL cell line. A WSU-DLCL2 human xenograft tumor model was generated by subcutaneous inoculation in the flank of 8 week old female CB17 SCID mice (Charles River Laboratories, Wilmington, MA) with 4.0×10^6 WSU-DLCL2 cells (cell suspension in 0.1 mL RPMI 1640 media). When the mean tumor volume reached approximately 200 mm^3, the animals were randomized into one vehicle control group and seven treatment groups (n=7/group) as described in Table 3a. Mice were then dosed with 20% HPβCD or Compound I-263a and/or tafasitamab over a 3 week period. In the combination treatment groups, I-263a was administered first, followed immediately by the administration of tafasitamab. Tumor growth and body weight were measured twice per week during the treatment and post-treatment periods, and mice were humanely euthanized once they had reached their humane endpoint. Tumors were measured using Vernier calipers and volumes were calculated using standard equation: V=W^2×L/2, where V=volume, W=width, and L=length for the tumor.
A 0.8625 mg/mL stock solution of I-263a was formulated weekly in 20% HPβCD and administered intravenously (IV) based on an average body weight using a 0.2 mL dosing volume. Final dose of I-263a received was 7.5 mg/kg. I-263a was administered on a BIW schedule for 3 weeks (Days 1, 4, 8, 11, 15, 18). Tafasitamab was formulated prior to each injection in 0.9% saline at 0.6 mg/mL and 2.0 mg/mL. Final dose of tafasitamab received was 3, 10, or 20 mg/kg based on average body weight. Tafasitamab was administered intraperitoneally (IP) on a BIW schedule for 3 weeks (Days 1, 4, 8, 11, 15, 18). For the 3 mg/kg dose level, 0.1 mL of the 0.6 mg/mL solution was administered. For the 10 mg/kg and 20 mg/kg dose levels, dosing volumes of the 2.0 mg/mL solution were 0.1 mL and 0.2 mL, respectively. The vehicle group received IV treatment with the vehicle for I-263a (20% HPβCD) on a BIW schedule for three weeks (Days 1, 4, 8, 11, 15, 18).
Statistical analysis for growth rate inhibition was performed on data up to and including Day 21.

Row | Molecule | percentage of CD107+ NK cells [1] | Phagocytosis [2] | GRI % ([3]; I-263a 7.5 mg/kg IV BIW, 7.5 mg/kg) [%] | GRI % ([3]; I-263a 7.5 mg/kg IV BIW, listed as TAK-981) | Tumor volume on Day 21 (±SEM) ([3]; I-263a 7.5 mg/kg IV BIW 3 weeks) | tumor growth inhibition as single agents (in words) [3] | GRI % ([3]; tafasitamab 3 mg/kg IP BIW) [%] | GRI % ([3]; tafasitamab 10 mg/kg IP BIW) [%] | GRI % ([3]; tafasitamab 10 mg/kg IP BIW, listed as tafasitamab) | GRI % ([3]; tafasitamab 20 mg/kg IP BIW) [%] | GRI % ([3]; tafasitamab 20 mg/kg IP BIW, listed as tafasitamab) | Tumor volume on Day 21 (±SEM) ([3]; tafasitamab 3 mg/kg IP BIW 3 weeks) | Tumor volume on Day 21 (±SEM) ([3]; tafasitamab 10 mg/kg IP BIW 3 weeks) | Tumor volume on Day 21 (±SEM) ([3]; tafasitamab 20 mg/kg IP BIW 3 weeks)
1 | Cc1sc(C(=O)c2cncnc2N[C@@H]2C[C@H](COS(N)(=O)=O)[C@@H](O)C2)cc1[C@@H]1NCCc2ccc(Cl)cc21 [Compound I-263a, [(1R,2S,4R)-4-{[5-({4-[(1R)-7-chloro-1,2,3,4-tetrahydroisoquinolin-1-yl]-5-methyl-2-thienyl}carbonyl)pyrimidin-4-yl]amino}-2-hydroxycyclopentyl]methyl sulfamate] | elevated percentage of CD107+ NK cells | effectively phagocytosed | 14 | did not result in significant growth rate inhibition | 1410.7 ± 155.8 | do not show significant or extensive tumor growth inhibition |  |  |  |  |  |  |  | 
2 | Tafasitamab: humanized monoclonal antibody that targets the antigen CD19, engineered in the IgG Fc-region to enhance ADCC; sequences in Table 1 | elevated percentage of CD107+ NK cells | effectively phagocytosed |  |  |  | do not show significant or extensive tumor growth inhibition | 20 | 12 | did not result in significant growth rate inhibition | 2 | did not result in significant growth rate inhibition | 1197.3 ± 168.3 | 1494.3 ± 126.3 | 1519.0 ± 110.8
